Data published in doi:10.1101/2024.11.09.622805v1 (bioRxiv, 2024).

Columns and labels:
[1] = test system: SNAP-25, Syntaxin-1A, AT1A3; assay: Immunocytochemistry of porosome proteins in Alzheimer's neurons; assay type: cell-based, mouse; details: Alzheimer's neurons WT-APP (Aβ)
[2] = stated in discussion, no reference given; cited from earlier work
HT-22 cells = assay type: cell-based, mouse

O=c1cc(-c2ccc(O)cc2)oc2cc(O)cc(O)c12 [Apigenin]
immunoreactivity of SNAP-25, Syntaxin-1A and AT1A3, single agent [1]: Modest increase
passage through the blood-brain barrier [2]: can pass through the blood-brain barrier
mitoSOX, peptide plus Apigenin (HT-22 cells; AD neurons, peptide and Apigenin combined): near normal levels
mitoSOX, effect of Apigenin (HT-22 cells; HT-22, Apigenin 5 or 10 μM with DA1 1 μM, Aβ1–42 10 μM 12 h): not much change
